3 compounds from patent publication US6372957B1, “Transgenic mouse comprising a MEF2 binding site operatively linked to an indicator gene and methods of use” (Board of Regents, The University of Texas System, priority 1998, dated 2002) can be followed below.

Experiment [1] relates to MEF2. Nature of the experiment: 3×MEF2-luciferase MEF2-dependent reporter in transiently transfected primary neonatal rat cardiomyocytes. Type of experiment: cell-based.
Text: To determine whether MEF2 was a target for hypertrophic signaling in cardiomyocytes, the inventors tested whether hypertrophy in response to phenylephrine (PE) and fetal bovine serum (FBS) activated a MEF2-dependent reporter (3×MEF2-luciferase), containing three MEF2 binding sites.
Experiment [2] relates to GAL4-MEF2C fusion protein. Nature of the experiment: pG5E1b-luciferase (Gal-luc) reporter with GAL-MEF2C (complete open reading frame) in cardiomyocytes. In kind it is cell-based, rat. The settings on record: for block of activation of GAL-MEF2C by PE: cardiomyocytes stimulated with PE. As to the method:
FIG. 12A, FIG. 12B and FIG. 12C. CaM kinase and MAP kinase target different domains of MEF2. Primary neonatal rat cardiomyocytes in serum-free medium were transiently transfected with the indicated expression plasmids and luciferase activity was determined in cell extracts. FIG. 12A, cells were stimulated with PE (10 uM) or 10% FBS, as indicated, and expression of the MEF2-dependent reporter, 3×MEF2-luciferase, was assayed. FIG. 12B, cells transiently transfected with pG5E1b-luciferase (Gal-luc) and GAL-MEF2C were stimulated with PE, as in FIG. 12A, in the presence of KN62 or SB202190, as indicated. FIG. 12C, cells were transiently transfected with pG5E1b-luciferase and GAL-MEF2C (left panel) or GAL-MEF2C-ΔN (right panel) along with activated CaMKIV and MKK6, as indicated.

Experiment [3] has as its system GAL4-MEF2C fusion protein. The experiment can be described thus: GAL4-dependent reporter with GAL4 fused to the C-terminus of MEF2C (transcription activation domains) in cardiomyocytes. Conditions: stimulation of cardiomyocytes. In kind it is cell-based. The source says: FIG. 6. Phenylephrine induces MEF2C transcriptional activity through a CaMK-dependent pathway. Cardiomyocytes were transiently transfected with expression vectors encoding GAL4-MEF2C and a GAL4-dependent reporter gene in the presence and absence of PE and the CaMK inhibitor KN-93.
In light of the ability of MEF2 to respond to calcium-dependent signal transduction pathways in T cells, the inventors have investigated whether the same pathways also activate MEF2 in cardiomyocytes. […] When the C-terminus of MEF2C, which contains the transcription activation domains (TADs), but lacks the MADS and MEF2 domains required for DNA binding and dimerization, is fused to the DNA binding domain of the yeast transcription factor GAL4, the resulting GAL4-MEF2C fusion protein retains sensitivity to calcineurin and CaMKIV (FIG. 5). This GAL4-MEF2C fusion protein is also activated by stimulation of cardiomyocytes with the hypertrophic agonist phenylephrine (PE) (FIG. 6).

In experiment [4] the test system is MEF2. Nature of the experiment: MEF2 DNA binding activity in stimulated cardiomyocytes. Type of experiment: cell-based, rat. Conditions: cardiomyocytes stimulated with PE or FBS.

Regarding `CNC[C@H](O)c1cccc(O)c1` [PE, phenylephrine], the “activation of a reporter containing a mutant MEF2 site” value in experiment [1] (cardiomyocytes, PE or FBS) is on record as “not a reporter containing a mutant MEF2 site”. The “activation of MEF2-dependent reporter (3×MEF2-luciferase)” value in experiment [1] (primary neonatal rat cardiomyocytes, serum-free medium, PE 10 uM or 10% FBS) is given as “stimulated the MEF2 reporter”. Besides, the “activity of GAL4-MEF2C fusion protein (complete open reading frame of MEF2C)” value in experiment [2] (cardiomyocytes, PE or FBS) is listed as “stimulated activity”. Also, the “activation of GAL4-MEF2C fusion protein (C-terminus of MEF2C)” value in experiment [3] is “activated”. Also, the “amount of MEF2 DNA binding activity” value in experiment [4] was “unchanged”.
Turning to `CN([C@@H](Cc1ccc(OS(=O)(=O)c2cccc3cnccc23)cc1)C(=O)N1CCN(c2ccccc2)CC1)S(=O)(=O)c1cccc2cnccc12` [KN62], the “block of activation of GAL-MEF2C by PE” value in experiment [2] is reported as “partially blocked”.
For `Oc1ccc(-c2nc(-c3ccncc3)c(-c3ccc(F)cc3)[nH]2)cc1` [SB202190], the “block of activation of GAL-MEF2C by PE” value in experiment [2] is given as “partially blocked”.
